Source: patent US20230139171A1 (SITA Information Networking Computing UK Limited, priority 2019, published 2023)
Where a name gives a salt, the structure may show the parent alone.

Assays:
Type in all cases: cell-based
human TLR8 = target: T1, human TLR8 (Homo sapiens, UniProt Q9NR97); assay: TLR8 inhibition reporter assay (HEK-Blue cells, SEAP reporter, R848 stimulation); conditions: HEK-Blue cells overexpressing human TLR8, SEAP reporter, R848 15.9 μM; read-out: TLR8 IC50
T1 construct: host or cells: HEK-Blue cells
T1 sequence (Q9NR97 27-1041): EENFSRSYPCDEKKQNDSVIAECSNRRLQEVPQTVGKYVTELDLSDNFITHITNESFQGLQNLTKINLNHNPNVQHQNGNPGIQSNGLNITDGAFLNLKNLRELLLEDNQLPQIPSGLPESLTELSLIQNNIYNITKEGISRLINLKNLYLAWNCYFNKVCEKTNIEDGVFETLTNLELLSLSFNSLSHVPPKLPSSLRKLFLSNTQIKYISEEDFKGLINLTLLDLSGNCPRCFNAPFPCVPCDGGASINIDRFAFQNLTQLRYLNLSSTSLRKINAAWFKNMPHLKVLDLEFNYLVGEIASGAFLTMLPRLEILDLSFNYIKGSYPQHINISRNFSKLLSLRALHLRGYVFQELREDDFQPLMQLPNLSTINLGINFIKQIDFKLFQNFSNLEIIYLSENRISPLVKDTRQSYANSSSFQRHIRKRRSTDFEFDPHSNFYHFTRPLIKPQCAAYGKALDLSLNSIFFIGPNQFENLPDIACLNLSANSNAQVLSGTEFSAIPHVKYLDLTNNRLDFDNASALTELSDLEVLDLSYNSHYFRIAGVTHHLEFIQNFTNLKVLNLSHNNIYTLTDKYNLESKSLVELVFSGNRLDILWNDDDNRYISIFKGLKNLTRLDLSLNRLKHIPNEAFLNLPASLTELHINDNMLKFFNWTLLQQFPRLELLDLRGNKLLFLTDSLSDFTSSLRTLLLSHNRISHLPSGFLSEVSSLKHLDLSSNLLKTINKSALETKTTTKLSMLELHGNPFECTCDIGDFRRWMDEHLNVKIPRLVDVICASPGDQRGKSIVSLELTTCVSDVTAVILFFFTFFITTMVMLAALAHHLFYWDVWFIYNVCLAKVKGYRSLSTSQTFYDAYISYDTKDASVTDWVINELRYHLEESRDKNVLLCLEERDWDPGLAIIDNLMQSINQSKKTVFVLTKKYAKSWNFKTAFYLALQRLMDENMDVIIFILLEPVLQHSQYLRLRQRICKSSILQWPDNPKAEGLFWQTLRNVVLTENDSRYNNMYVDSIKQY
How it was run: (§1)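 Compound treatment: 30 min, RT, 0.05 nM–50 μM final. Agonist: TLR7 gardiquimod 7.5 μM; TLR8 R848 15.9 μM; TLR9 ODN2006 5 nM. Incubation 22 h, 37 °C, 5% CO2. Readout SEAP, HEK-Blue Detection.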

human TLR9 = target: T2, human TLR9 (Homo sapiens, UniProt Q9NR96); assay: TLR9 inhibition reporter assay (HEK-Blue cells, SEAP reporter, ODN2006 stimulation); conditions: HEK-Blue cells overexpressing human TLR9, SEAP reporter, ODN2006 5 nM
T2 construct: host or cells: HEK-Blue cells
T2 sequence (Q9NR96 26-1032): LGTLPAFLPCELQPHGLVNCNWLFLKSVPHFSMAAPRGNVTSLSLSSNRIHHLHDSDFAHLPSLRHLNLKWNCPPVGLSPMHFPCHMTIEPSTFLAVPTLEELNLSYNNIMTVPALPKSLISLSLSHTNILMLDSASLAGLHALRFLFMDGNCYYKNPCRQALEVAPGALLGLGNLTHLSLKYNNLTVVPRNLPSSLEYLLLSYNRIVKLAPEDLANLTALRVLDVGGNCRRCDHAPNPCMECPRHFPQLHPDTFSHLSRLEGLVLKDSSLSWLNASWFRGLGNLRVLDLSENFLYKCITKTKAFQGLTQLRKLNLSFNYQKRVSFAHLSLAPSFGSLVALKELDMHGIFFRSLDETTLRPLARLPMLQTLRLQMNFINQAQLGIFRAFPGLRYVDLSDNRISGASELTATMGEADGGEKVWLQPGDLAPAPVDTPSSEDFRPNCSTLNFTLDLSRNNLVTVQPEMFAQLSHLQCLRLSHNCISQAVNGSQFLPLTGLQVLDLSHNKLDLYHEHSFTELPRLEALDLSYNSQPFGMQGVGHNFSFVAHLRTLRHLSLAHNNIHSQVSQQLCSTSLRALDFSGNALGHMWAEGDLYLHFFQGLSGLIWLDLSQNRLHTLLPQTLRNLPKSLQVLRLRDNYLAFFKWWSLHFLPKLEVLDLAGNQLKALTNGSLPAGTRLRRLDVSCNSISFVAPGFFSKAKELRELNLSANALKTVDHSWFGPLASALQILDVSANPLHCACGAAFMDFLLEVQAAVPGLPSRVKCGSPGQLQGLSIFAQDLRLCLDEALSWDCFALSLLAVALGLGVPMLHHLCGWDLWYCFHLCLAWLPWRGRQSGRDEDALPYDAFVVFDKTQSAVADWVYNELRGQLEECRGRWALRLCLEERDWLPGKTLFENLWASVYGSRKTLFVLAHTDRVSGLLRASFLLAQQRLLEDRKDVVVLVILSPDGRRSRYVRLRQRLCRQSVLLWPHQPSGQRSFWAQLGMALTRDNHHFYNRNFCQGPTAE
How it was run: as §1

human TLR7 = target: T3, human TLR7 (Homo sapiens, UniProt Q9NYK1); assay: TLR7 inhibition reporter assay (HEK-Blue cells, SEAP reporter, gardiquimod stimulation); conditions: HEK-Blue cells overexpressing human TLR7, SEAP reporter, gardiquimod 7.5 μM; read-out: TLR7 IC50
T3 construct: host or cells: HEK-Blue cells
T3 sequence (Q9NYK1 27-1049): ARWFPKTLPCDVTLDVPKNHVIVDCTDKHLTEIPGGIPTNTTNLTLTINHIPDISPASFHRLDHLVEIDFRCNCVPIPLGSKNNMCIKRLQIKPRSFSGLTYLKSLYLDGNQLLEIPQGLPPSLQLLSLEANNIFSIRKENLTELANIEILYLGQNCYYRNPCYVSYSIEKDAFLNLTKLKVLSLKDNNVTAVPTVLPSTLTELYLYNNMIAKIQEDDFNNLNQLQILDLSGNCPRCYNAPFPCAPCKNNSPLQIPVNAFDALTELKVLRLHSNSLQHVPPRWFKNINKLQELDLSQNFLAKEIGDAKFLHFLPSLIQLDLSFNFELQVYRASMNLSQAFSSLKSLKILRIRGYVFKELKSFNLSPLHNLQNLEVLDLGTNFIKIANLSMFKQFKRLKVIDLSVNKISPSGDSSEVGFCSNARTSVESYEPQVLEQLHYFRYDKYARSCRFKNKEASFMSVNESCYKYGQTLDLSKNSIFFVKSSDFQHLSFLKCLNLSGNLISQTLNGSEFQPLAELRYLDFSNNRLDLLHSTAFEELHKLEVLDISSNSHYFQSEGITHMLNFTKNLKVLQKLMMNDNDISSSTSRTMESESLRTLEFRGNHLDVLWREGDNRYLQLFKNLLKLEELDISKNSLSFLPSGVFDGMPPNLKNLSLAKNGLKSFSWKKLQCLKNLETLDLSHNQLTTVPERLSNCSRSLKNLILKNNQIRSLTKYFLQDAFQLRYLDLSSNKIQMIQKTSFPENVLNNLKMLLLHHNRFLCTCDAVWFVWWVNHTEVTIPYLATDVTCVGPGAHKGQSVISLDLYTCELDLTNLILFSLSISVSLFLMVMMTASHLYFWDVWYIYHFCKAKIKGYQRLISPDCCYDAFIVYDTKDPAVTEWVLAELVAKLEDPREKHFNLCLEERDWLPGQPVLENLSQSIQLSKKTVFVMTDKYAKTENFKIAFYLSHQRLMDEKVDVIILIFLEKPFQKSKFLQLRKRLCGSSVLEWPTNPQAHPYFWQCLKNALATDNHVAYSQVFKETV
How it was run: as §1

SMILES | IC50 (human TLR8) | IC50 (human TLR9) | IC50 (human TLR7)
Cc1c(-c2[nH]c3sc(N4CC5(CN(CCS(C)(=O)=O)C5)C4)nc3c2C(C)C)cn2ncnc2c1C [Example 304, 5-(7,8-dimethyl-[1,2,4]triazolo[1,5-a]pyridin-6-yl)-6-isopropyl-2-(6-(2-(methylsulfonyl)ethyl)-2,6-diazaspiro[3.3]heptan-2-yl)-4H-pyrrolo[3,2-d]thiazole] | 19.2 nM | 35.6 µM | 8.2 nM
Cc1c(-c2[nH]c3sc(N4CCNC[C@H]4C)nc3c2C(C)C)cn2ncnc2c1C [Example 308, (R)-5-(7,8-dimethyl-[1,2,4]triazolo[1,5-a]pyridin-6-yl)-6-isopropyl-2-(2-methylpiperazin-1-yl)-4H-pyrrolo[3,2-d]thiazole, HCl] | 0.09 nM | 15.8 µM | 0.18 nM
Cc1c(-c2[nH]c3sc(N4C[C@@H](C)NC[C@@H]4C)nc3c2C(C)C)cn2ncnc2c1C [Example 309, 5-(7,8-dimethyl-[1,2,4]triazolo[1,5-a]pyridin-6-yl)-2-((2S,5R)-2,5-dimethylpiperazin-1-yl)-6-isopropyl-4H-pyrrolo[3,2-d]thiazole] | 4.19 nM | 14.4 µM | 6.67 nM
Cc1c(-c2[nH]c3sc(N4CCNC[C@@H]4C)nc3c2C(C)C)cn2ncnc2c1C [Example 310, (S)-5-(7,8-dimethyl-[1,2,4]triazolo[1,5-a]pyridin-6-yl)-6-isopropyl-2-(2-methylpiperazin-1-yl)-4H-pyrrolo[3,2-d]thiazole] | 0.43 nM | 19.3 µM | 1.45 nM
Cc1c(-c2[nH]c3sc(N4CCN(CC5CCOCC5)C[C@H]4C)nc3c2C(C)C)cn2ncnc2c1C [Example 317, (R)-5-(7,8-dimethyl-[1,2,4]triazolo[1,5-a]pyridin-6-yl)-6-isopropyl-2-(2-methyl-4-((tetrahydro-2H-pyran-4-yl)methyl)piperazin-1-yl)-4H-pyrrolo[3,2-d]thiazole] | 4.22 nM | 44.4 µM | 9.47 nM
Cc1c(-c2[nH]c3sc(N4CCN(C5CCOCC5)C[C@H]4C)nc3c2C(C)C)cn2ncnc2c1C [Example 318, (R)-5-(7,8-dimethyl-[1,2,4]triazolo[1,5-a]pyridin-6-yl)-6-isopropyl-2-(2-methyl-4-(tetrahydro-2H-pyran-4-yl)piperazin-1-yl)-4H-pyrrolo[3,2-d] thiazole] | 0.83 nM | 21.6 µM | 6.23 nM
Cc1c(-c2[nH]c3sc(N4CCN(C)C[C@H]4C)nc3c2C(C)C)cn2ncnc2c1C [Example 319, (R)-5-(7,8-dimethyl-[1,2,4]triazolo[1,5-a]pyridin-6-yl)-2-(2,4-dimethylpiperazin-1-yl)-6-isopropyl-4H-pyrrolo[3,2-d]thiazole] | 0.53 nM | 19.4 µM | 3.84 nM
CCN1CCN(c2nc3c(C(C)C)c(-c4cn5ncnc5c(C)c4C)[nH]c3s2)[C@H](C)C1 [Example 320, (R)-5-(7,8-dimethyl-[1,2,4]triazolo[1,5-a]pyridin-6-yl)-2-(4-ethyl-2-methylpiperazin-1-yl)-6-isopropyl-4H-pyrrolo[3,2-d]thiazole] | 1.3 nM | 21.9 µM | 4.38 nM
Cc1c(-c2[nH]c3sc(N4CCN(C5CCC5)C[C@H]4C)nc3c2C(C)C)cn2ncnc2c1C [Example 323] | 3.86 nM | > 50 µM | 22.4 nM
Cc1c(-c2[nH]c3sc(N4CCN(C5CCN(C(C)C)CC5)C[C@H]4C)nc3c2C(C)C)cn2ncnc2c1C [Example 324] | 2.26 nM | 6.24 µM | 6.96 nM
Cc1c(-c2[nH]c3sc(N4CCN(CC(C)(C)O)C[C@H]4C)nc3c2C(C)C)cn2ncnc2c1C [Example 325, (R)-1-(4-(5-(7,8-dimethyl-[1,2,4]triazolo[1,5-a]pyridin-6-yl)-6-isopropyl-4H-pyrrolo[3,2-d]thiazol-2-yl)-3-methylpiperazin-1-yl)-2-methylpropan-2-ol] | 0.19 nM | > 50 µM | 19 nM
CNCC(=O)N1CCN(c2nc3c(C(C)C)c(-c4cn5ncnc5c(C)c4C)[nH]c3s2)[C@H](C)C1 [Example 326, (R)-1-(4-(5-(7,8-dimethyl-[1,2,4]triazolo[1,5-a]pyridin-6-yl)-6-isopropyl-4H-pyrrolo[3,2-d]thiazol-2-yl)-3-methylpiperazin-1-yl)-2-(methylamino)ethan-1-one] | 7.97 nM | 17.6 µM | 5.42 nM
Cc1c(-c2[nH]c3sc(N4CCN(C(=O)CN(C)C)C[C@H]4C)nc3c2C(C)C)cn2ncnc2c1C [Example 327, (R)-1-(4-(5-(7,8-dimethyl-[1,2,4]triazolo[1,5-a]pyridin-6-yl)-6-isopropyl-4H-pyrrolo[3,2-d]thiazol-2-yl)-3-methylpiperazin-1-yl)-2-(dimethylamino)ethan-1-one] | 7.11 nM | 15.8 µM | 7.5 nM
